One data set deals with B16 tumors. Description: Example 4: i.t. PEP005 on RHS primary B16 tumor with or without DC+IL-2, growth of LHS secondary tumor. Type of data set: in vivo, C57BL/6 mice. From the text: It has previously been established that PEP005-mediated curing of primary tumors can lead to the reduction secondary tumors in a B16-OVA lung metastasis and a s.c. Lewis lung-OVA model. These studies were extended (i) using a model where the model antigen ovalbumin is absent, (ii) using a system where both primary and secondary tumors are established before treatment initiation and (iii) using DC therapy combined with PEP005-mediated curing of primaries, to determine whether the two treatments can improve the anti-cancer effect on the secondary tumors.
[…], three groups of C57BL/6 mice were inoculated with 1×10^5 B16 s.c. on the right hand side of the back (RHS) and 2×10^4 s.c. on the left hand side of the back (LHS). A fourth group (Group 4) received only 2×10^4 s.c. on the left hand side of the back (LHS). On d0. the groups were given the following treatments:
PEP005 RHS: The larger RHS tumors were treated intra-tumorally with 25 μg PEP005 in 50 μl of 5% w/v DMSO in RPMI 1640 supplemented with HEPES 10 mM.
PEP005 RHS+DC+IL-2: The large RHS tumors were treated as for Group 1 plus the animals received on d0 DC2.4 cells (i) activated with LPS (for 3 hr incubation at 37° C. using 1 μg/ml E. coli 055:B5, Sigma), (ii) sensitized with TRP-2 peptide, SVYDFFVWL [SEQ ID NO:1] (30 μg/ml 2 hr, 37° C.), (iii) irradiated (5000 rads), washed and then injected i.v. (4×10^6/mouse iv) on d0. The animals also received rhIL-2 at 5×10^4 IU given twice daily per mouse from d0 to d4 i.p.
CONT TREAT RHS: Mock treatment group; the larger RHS tumors were treated intra-tumorally with 50 μl of 5% w/v DMSO in RPMI1640 supplemented with HEPES 10 mM.
NO RHS: This group had no RHS tumor and received no treatment.

The next data set has as its system B16-OVA tumors. Description: PEP005-mediated cure of primaries plus DC therapy, growth of secondary tumors, s.c. B16-OVA model. Type of data set: in vivo, C57BL/6 mice. The note with it: Log rank p<0.001 (PEP005) and =0.002 (DC). On the procedure:
FIGS. 13A to C are graphical representations showing synergistic effects between PEP005-mediated cure of primaries and DC therapy on the growth of secondary tumors and on CD8^+ T-cell induction. (A) On d−3 C57BL/6 mice where inoculated with 2×10^6 B16-OVA cells on the right flank (primary tumor) and 2×10^4 B16-OVA cells on the left flank (secondary tumor). On d0 and d1 the primary B16-OVA tumors, which has reach 30.4 mm^2+SD6 were cured with i.t. injections of 25 μg of PEP005 formulated in PEG400. On d4 and d11 mice received DC therapy using DC2.4 cells pulsed with SVYDFFVWL [SEQ ID NO:1], KVPRNQDWL [SEQ ID NO:4] and SIINFEKL [SEQ ID NO:2] peptides, and ovalbumin (n=12, PEP005+DC). […] Animal groups were established and treated as in (A) except that on d12 mice were sacrificed and splenocytes analyzed in an ex vivo ELISPOT assay for responses to SVYDFFVWL [SEQ ID NO:1], KVPRNQDWL [SEQ ID NO:4] and SIINFEKL [SEQ ID NO:2] […]
To determine whether the immunostimulatory activity of PEP005-mediated cure of primary tumors would synergize with DC therapy to reduce growth of secondaries, four groups of C57BL/6 mice were established using the s.c. B16-OVA model. […] The growth of secondary tumors was monitored over time.

Experimental findings from patent US8106092B2, “Treatment of solid cancers” (priority 2004, dated 2012) are described below.

For the molecule `C/C=C(/C)C(=O)O[C@H]1C(C)=C[C@]23C(=O)[C@@H](C=C(CO)[C@@H](O)[C@]12O)[C@H]1[C@@H](C[C@H]3C)C1(C)C` [PEP005, ingenol-3-angelate], the “tolerability of i.t. treatment” value in the data set on B16 tumors (25 μg PEP005 in 50 μl of 5% w/v DMSO in RPMI 1640, i.t.) was “not well tolerated”. Besides, the “RHS (primary) tumors successfully cured” value with B16 tumors (i.t. 25 μg PEP005 on d0) is 5/6. In addition, in the data set with B16 tumors (in each of Group 1 and 2 (n=7 each), PEP005 using DMSO), the “mice dying shortly after i.t. treatment” value was “one”. The “survival (deaths due to growth of LHS tumor) vs NO RHS group” value with B16 tumors (mouse, in vivo) is listed as “behaved essentially identically”. The “growth of LHS (secondary) tumor d5 to d11 vs NO RHS” value with B16 tumors (p=0.042) is “slower”. In the data set with B16-OVA tumors, the “growth of secondaries vs no treatment controls” value is listed as “significantly reduced the growth of secondaries”.
